Species on record: Rattus norvegicus
Assay: Open TG-GATES - Regimen: Single
Assay type: toxicity, organism-based, Sprague-Dawley
Parameters: regimen Single, gender Male, age 6 weeks
Conditions: in vivo, ip, 0.003 mg/kg, route intraperitoneal injection, dose 3 ug/Kg, dose level Middle; for APTT / Bas / Eos / Fbg / Hb / Ht / Lym / MCH / MCHC / MCV / Mono / Neu / PT / Plat / RBC / Ret / WBC: tissue Blood; for KIDNEY_L / KIDNEY_R / KIDNEY_TOTAL: tissue Kidney; for LIVER: tissue Liver; for A/G / ALP / ALT / AST / BUN / CRE / Ca / Cl / DBIL / GLC / IP / K / LDH / Na / PL / RALB / TBIL / TC / TG / TP / gamma-GTP: tissue Plasma

H-KGDRLS-OH [TNF-ALPHA] was tested, and the TERMINAL_BW (3 h) was 199 g, the APTT (3 h) was 17.3 s and the Bas (3 h) was 0%. It also gave an Eos (3 h) of 0.4%, a Fbg (3 h) of 265 mg/dL and a Hb (3 h) of 13 g/dL. The Ht (3 h) was 39.9%, the Lym (3 h) was 70.4% and the MCH (3 h) was 21.1 pg. It also gave an MCHC (3 h) of 32.6%, an MCV (3 h) of 64.9 fL and a Mono (3 h) of 4.2%. The Neu (3 h) was 23%, the PT (3 h) was 15.9 s and the Plat (3 h) was 112.9 x10_4/uL. For the same substance, the RBC (3 h) was 614.6 x10_4/ul, the Ret (3 h) was 9.2% and the WBC (3 h) was 88.2 x10_2/uL. For the same substance, the KIDNEY_L (3 h) was 0.9 g, the KIDNEY_R (3 h) was 0.9 g and the KIDNEY_TOTAL (3 h) was 1.8 g. For the same substance, the LIVER (3 h) was 9.3 g, the A/G (3 h) was 0.9 and the ALP (3 h) was 1480.4 IU/L. The ALT (3 h) was 47.6 IU/L, the AST (3 h) was 75.8 IU/L and the BUN (3 h) was 10.8 mg/dL. The CRE (3 h) was 0.2 mg/dL, the Ca (3 h) was 10.8 mg/dL and the Cl (3 h) was 104.8 meq/L. The DBIL (3 h) was 0.01 mg/dL, the GLC (3 h) was 162.2 mg/dL and the IP (3 h) was 9.2 mg/dL. It also gave a K (3 h) of 4.3 meq/L, an LDH (3 h) of 68 IU/L and a Na (3 h) of 141.6 meq/L. For the same substance, the PL (3 h) was 137 mg/dL, the RALB (3 h) was 2.5 g/dL and the TBIL (3 h) was 0.052 mg/dL. For the same substance, the TC (3 h) was 73 mg/dL, the TG (3 h) was 61.8 mg/dL and the TP (3 h) was 5.3 g/dL. It also gave a gamma-GTP (3 h) of 1.4 IU/L, a TERMINAL_BW (6 h) of 197.1 g and an APTT (6 h) of 17.1 s. For the same substance, the Bas (6 h) was 0%, the Eos (6 h) was 0.4% and the Fbg (6 h) was 321.4 mg/dL. It also gave a Hb (6 h) of 13 g/dL, a Ht (6 h) of 39.7% and a Lym (6 h) of 63.4%. For the same substance, the MCH (6 h) was 21.5 pg, the MCHC (6 h) was 33% and the MCV (6 h) was 65.1 fL. For the same substance, the Mono (6 h) was 2.6%, the Neu (6 h) was 32% and the PT (6 h) was 15.1 s. For the same substance, the Plat (6 h) was 110.6 x10_4/uL, the RBC (6 h) was 610.4 x10_4/ul and the Ret (6 h) was 8%. The WBC (6 h) was 81.9 x10_2/uL, the KIDNEY_L (6 h) was 0.9 g and the KIDNEY_R (6 h) was 0.9 g. It also gave a KIDNEY_TOTAL (6 h) of 1.8 g, an LIVER (6 h) of 8.7 g and an A/G (6 h) of 0.9. For the same substance, the ALP (6 h) was 1155.6 IU/L, the ALT (6 h) was 39.8 IU/L and the AST (6 h) was 65.8 IU/L. The BUN (6 h) was 8.6 mg/dL, the CRE (6 h) was 0.2 mg/dL and the Ca (6 h) was 10.7 mg/dL. It also gave a Cl (6 h) of 105.6 meq/L, a DBIL (6 h) of 0.008 mg/dL and a GLC (6 h) of 170.4 mg/dL. The IP (6 h) was 10.2 mg/dL, the K (6 h) was 3.7 meq/L and the LDH (6 h) was 72.8 IU/L. It also gave a Na (6 h) of 143.4 meq/L, a PL (6 h) of 147.6 mg/dL and an RALB (6 h) of 2.5 g/dL. It also gave a TBIL (6 h) of 0.06 mg/dL, a TC (6 h) of 84.4 mg/dL and a TG (6 h) of 27.2 mg/dL. The TP (6 h) was 5.4 g/dL, the gamma-GTP (6 h) was 1 IU/L and the TERMINAL_BW (9 h) was 194.9 g. It also gave an APTT (9 h) of 17.3 s, a Bas (9 h) of 0% and an Eos (9 h) of 0.4%. It also gave a Fbg (9 h) of 380.6 mg/dL, a Hb (9 h) of 12.9 g/dL and a Ht (9 h) of 39.7%. For the same substance, the Lym (9 h) was 66.2%, the MCH (9 h) was 21.2 pg and the MCHC (9 h) was 32.4%. The MCV (9 h) was 65.5 fL, the Mono (9 h) was 2.6% and the Neu (9 h) was 29.8%. For the same substance, the PT (9 h) was 15.4 s, the Plat (9 h) was 104.9 x10_4/uL and the RBC (9 h) was 606.6 x10_4/ul. For the same substance, the Ret (9 h) was 8.3%, the WBC (9 h) was 75.4 x10_2/uL and the KIDNEY_L (9 h) was 0.9 g. It also gave a KIDNEY_R (9 h) of 0.9 g, a KIDNEY_TOTAL (9 h) of 1.8 g and an LIVER (9 h) of 7.9 g. It also gave an A/G (9 h) of 0.9, an ALP (9 h) of 1301.4 IU/L and an ALT (9 h) of 36.4 IU/L. The AST (9 h) was 71.4 IU/L, the BUN (9 h) was 7.6 mg/dL and the CRE (9 h) was 0.2 mg/dL. The Ca (9 h) was 10.6 mg/dL, the Cl (9 h) was 105.6 meq/L and the DBIL (9 h) was 0.004 mg/dL. It also gave a GLC (9 h) of 159 mg/dL, an IP (9 h) of 9.5 mg/dL and a K (9 h) of 4 meq/L. For the same substance, the LDH (9 h) was 46.6 IU/L, the Na (9 h) was 142 meq/L and the PL (9 h) was 155.4 mg/dL. It also gave an RALB (9 h) of 2.5 g/dL, a TBIL (9 h) of 0.062 mg/dL and a TC (9 h) of 92.6 mg/dL. For the same substance, the TG (9 h) was 25.2 mg/dL, the TP (9 h) was 5.3 g/dL and the gamma-GTP (9 h) was 1 IU/L. For the same substance, the TERMINAL_BW (24 h) was 211 g, the APTT (24 h) was 14.6 s and the Bas (24 h) was 0%. For the same substance, the Eos (24 h) was 1%, the Fbg (24 h) was 361.4 mg/dL and the Hb (24 h) was 12.8 g/dL. The Ht (24 h) was 39.4%, the Lym (24 h) was 77.6% and the MCH (24 h) was 20.7 pg. The MCHC (24 h) was 32.6%, the MCV (24 h) was 63.6 fL and the Mono (24 h) was 3.2%. For the same substance, the Neu (24 h) was 14.8%, the PT (24 h) was 15.5 s and the Plat (24 h) was 115.8 x10_4/uL. It also gave an RBC (24 h) of 619 x10_4/ul, a Ret (24 h) of 8% and a WBC (24 h) of 65.2 x10_2/uL. The KIDNEY_L (24 h) was 0.9 g, the KIDNEY_R (24 h) was 0.9 g and the KIDNEY_TOTAL (24 h) was 1.8 g. The LIVER (24 h) was 10 g, the A/G (24 h) was 0.9 and the ALP (24 h) was 1666.2 IU/L. It also gave an ALT (24 h) of 42.8 IU/L, an AST (24 h) of 71.2 IU/L and a BUN (24 h) of 16.4 mg/dL. It also gave a CRE (24 h) of 0.2 mg/dL, a Ca (24 h) of 11.1 mg/dL and a Cl (24 h) of 106.8 meq/L. It also gave a DBIL (24 h) of 0.01 mg/dL, a GLC (24 h) of 177.8 mg/dL and an IP (24 h) of 8.5 mg/dL. It also gave a K (24 h) of 4.3 meq/L, an LDH (24 h) of 74.6 IU/L and a Na (24 h) of 142.4 meq/L. For the same substance, the PL (24 h) was 155 mg/dL, the RALB (24 h) was 2.6 g/dL and the TBIL (24 h) was 0.042 mg/dL. It also gave a TC (24 h) of 80.4 mg/dL, a TG (24 h) of 80.8 mg/dL and a TP (24 h) of 5.7 g/dL. For the same substance, the gamma-GTP (24 h) was 1 IU/L.

From ChEMBL document CHEMBL3885861, “Open TG-GATES”
